Calls of active or inactive are those of the source.
Experiments:
[1] = target: Sphingosine 1-phosphate receptor 2 (Homo sapiens, UniProt O95136); test: Dose Response Cell Based Assay for Agonists of the S1P2 Receptor of Purchased Analogues. [Related pubchem assays: 729, 843, 854, 736 ]; assay type: functional
[2] = Luminescence Cell-Based Dose Confirmation HTS to Identify Activators of 5'UTR Stem-Loop Driven Alpha-Synuclein mRNA Translation in H4 Neuroglioblastoma Cells. [Related pubchem assays: 1829 (Project Summary), 1814 (Primary HTS)]; assay type: functional
[3] = Luminescence Cell-Based Dose Response HTS to Identify Activators of Luciferase Translation or Activity in H4 […] Cells. [Related pubchem assays: 1829 (Project Summary), 1814 (Primary HTS)]; assay type: functional
H4 = test: Luminescence Cell-Based Dose Response HTS to Identify Activators of 5'UTR Stem-Loop Driven Prion Protein mRNA Translation in H4 Neuroglioblastoma Cells. [Related pubchem assays: 1829 (Project Summary), 1814 (Primary HTS)]; assay type: functional; settings: Homo sapiens
[4] = target: T1, Mannose-6-phosphate isomerase (Homo sapiens, UniProt P34949); test: inhibitors of human PMI, primary screen, biochemical, fluorescence intensity, coupled assay (AID 1209)
T1 sequence (P34949 whole entry): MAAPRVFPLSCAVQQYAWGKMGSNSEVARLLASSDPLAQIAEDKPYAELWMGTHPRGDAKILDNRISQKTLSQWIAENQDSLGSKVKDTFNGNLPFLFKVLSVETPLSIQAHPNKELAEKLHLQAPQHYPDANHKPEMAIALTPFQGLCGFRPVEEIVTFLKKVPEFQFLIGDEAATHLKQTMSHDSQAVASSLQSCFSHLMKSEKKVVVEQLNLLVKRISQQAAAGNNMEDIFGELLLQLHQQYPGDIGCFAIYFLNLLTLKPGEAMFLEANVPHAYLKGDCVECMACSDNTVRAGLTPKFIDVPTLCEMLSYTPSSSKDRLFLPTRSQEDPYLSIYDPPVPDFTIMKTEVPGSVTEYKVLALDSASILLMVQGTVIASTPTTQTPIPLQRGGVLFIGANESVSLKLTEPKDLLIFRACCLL

[5] = target: T1, Mannose-6-phosphate isomerase; test: human PMI inhibitors, high substrate, primary screen, biochemical, fluorescence intensity, high mannose 6-phosphate (AID 1220)
Leucine aminopeptidase = target: T2, Leucine aminopeptidase (Plasmodium falciparum 3D7, UniProt Q8IL11); test: P. falciparum M17LAP inhibitors, primary screen, biochemical, fluorogenic H-Leu-NHMec substrate, 1536-well (AID 1619); assay type: functional
T2 sequence (Q8IL11 whole entry): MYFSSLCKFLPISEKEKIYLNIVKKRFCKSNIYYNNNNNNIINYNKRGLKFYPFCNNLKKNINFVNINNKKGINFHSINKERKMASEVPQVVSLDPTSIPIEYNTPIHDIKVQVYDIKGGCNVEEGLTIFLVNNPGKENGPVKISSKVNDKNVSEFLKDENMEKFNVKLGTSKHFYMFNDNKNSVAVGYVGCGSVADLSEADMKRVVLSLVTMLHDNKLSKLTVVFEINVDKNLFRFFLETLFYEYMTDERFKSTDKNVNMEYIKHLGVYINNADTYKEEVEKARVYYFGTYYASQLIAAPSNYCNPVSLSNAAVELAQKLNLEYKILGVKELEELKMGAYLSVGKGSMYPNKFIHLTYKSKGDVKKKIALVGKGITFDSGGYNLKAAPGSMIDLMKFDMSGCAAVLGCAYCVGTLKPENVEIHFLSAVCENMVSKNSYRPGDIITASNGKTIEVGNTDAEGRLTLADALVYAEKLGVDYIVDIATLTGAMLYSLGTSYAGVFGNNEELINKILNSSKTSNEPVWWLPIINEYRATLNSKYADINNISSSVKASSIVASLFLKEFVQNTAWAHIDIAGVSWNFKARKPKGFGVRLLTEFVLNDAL

Aspartyl aminopeptidase = target: T3, Aspartyl aminopeptidase (Plasmodium falciparum 3D7, UniProt Q8I2J3); test: Counterscreen for inhibitors of M1 and M17 aminopeptidases: QFRET-based biochemical high throughput dose response assay for inhibitors of the Plasmodium falciparum M18 Aspartyl Aminopeptidase (PFM18AAP). [Related PubChem assays: 1619 (Screening assay (M17LAP inhibitors).), 1445 (Screening assay (M1AAP inhibitors).)]
T3 sequence (Q8I2J3 whole entry): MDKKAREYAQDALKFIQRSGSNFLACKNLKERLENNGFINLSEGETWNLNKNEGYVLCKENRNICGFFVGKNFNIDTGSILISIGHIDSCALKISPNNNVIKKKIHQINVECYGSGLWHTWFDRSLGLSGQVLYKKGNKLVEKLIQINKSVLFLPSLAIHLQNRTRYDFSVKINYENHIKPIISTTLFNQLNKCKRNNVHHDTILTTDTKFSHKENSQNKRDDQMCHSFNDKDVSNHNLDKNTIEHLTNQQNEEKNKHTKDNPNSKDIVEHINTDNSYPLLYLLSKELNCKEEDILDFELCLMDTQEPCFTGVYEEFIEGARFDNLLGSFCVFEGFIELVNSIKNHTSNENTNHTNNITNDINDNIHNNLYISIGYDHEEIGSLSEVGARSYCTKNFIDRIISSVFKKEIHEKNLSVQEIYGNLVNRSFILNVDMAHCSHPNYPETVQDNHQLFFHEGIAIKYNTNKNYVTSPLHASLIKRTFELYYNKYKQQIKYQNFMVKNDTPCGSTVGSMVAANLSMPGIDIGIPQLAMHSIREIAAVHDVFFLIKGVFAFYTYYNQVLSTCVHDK

Procathepsin L = Procathepsin L (Homo sapiens, UniProt P07711); test: cathepsin L inhibitors, dose response, counter-screen for M1/M17 aminopeptidase inhibitor project, biochemical, QFRET, 1536-well (AID 2214)
[6] = target: T4, Replicative DNA helicase DnaB (Mycobacterium tuberculosis, UniProt P9WMR3); test: DnaB intein splicing inhibitors, dose response, biochemical, cell-free fluorescence (AID 449749); assay type: functional
T4 sequence (P9WMR3 whole entry): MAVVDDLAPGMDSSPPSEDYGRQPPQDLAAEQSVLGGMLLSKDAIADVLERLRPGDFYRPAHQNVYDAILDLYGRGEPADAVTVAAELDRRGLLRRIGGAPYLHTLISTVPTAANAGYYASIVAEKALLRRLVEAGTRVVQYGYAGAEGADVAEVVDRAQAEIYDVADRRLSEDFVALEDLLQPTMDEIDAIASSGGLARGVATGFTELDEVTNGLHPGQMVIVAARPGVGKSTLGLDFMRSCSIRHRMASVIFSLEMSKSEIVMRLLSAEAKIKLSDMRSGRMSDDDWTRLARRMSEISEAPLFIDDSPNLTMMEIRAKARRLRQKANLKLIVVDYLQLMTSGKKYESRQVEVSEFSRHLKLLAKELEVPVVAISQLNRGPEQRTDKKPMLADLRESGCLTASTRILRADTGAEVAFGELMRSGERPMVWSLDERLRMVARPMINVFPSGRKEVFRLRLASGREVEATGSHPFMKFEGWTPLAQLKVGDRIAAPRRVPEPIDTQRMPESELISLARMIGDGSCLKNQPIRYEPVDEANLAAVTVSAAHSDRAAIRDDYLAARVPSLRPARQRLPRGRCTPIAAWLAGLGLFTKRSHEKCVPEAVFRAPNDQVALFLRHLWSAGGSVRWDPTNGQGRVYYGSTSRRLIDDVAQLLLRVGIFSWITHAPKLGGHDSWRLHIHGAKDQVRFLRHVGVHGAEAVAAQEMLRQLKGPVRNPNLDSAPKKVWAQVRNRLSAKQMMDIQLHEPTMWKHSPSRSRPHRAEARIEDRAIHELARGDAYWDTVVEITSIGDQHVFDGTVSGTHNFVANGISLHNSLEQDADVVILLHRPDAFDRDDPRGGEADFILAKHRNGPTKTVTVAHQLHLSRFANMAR

Protein RecA = target: T5, Protein RecA (Mycobacterium tuberculosis, UniProt P9WHJ3); test: Fluorescence Cell-Free Homogeneous Dose Retest to Identify Inhibitors of RecA-Intein Splicing Activity. [Related pubchem assays (depositor defined):AID2097, AID2223, AID489010, AID492950]; assay type: functional
T5 sequence (P9WHJ3 whole entry): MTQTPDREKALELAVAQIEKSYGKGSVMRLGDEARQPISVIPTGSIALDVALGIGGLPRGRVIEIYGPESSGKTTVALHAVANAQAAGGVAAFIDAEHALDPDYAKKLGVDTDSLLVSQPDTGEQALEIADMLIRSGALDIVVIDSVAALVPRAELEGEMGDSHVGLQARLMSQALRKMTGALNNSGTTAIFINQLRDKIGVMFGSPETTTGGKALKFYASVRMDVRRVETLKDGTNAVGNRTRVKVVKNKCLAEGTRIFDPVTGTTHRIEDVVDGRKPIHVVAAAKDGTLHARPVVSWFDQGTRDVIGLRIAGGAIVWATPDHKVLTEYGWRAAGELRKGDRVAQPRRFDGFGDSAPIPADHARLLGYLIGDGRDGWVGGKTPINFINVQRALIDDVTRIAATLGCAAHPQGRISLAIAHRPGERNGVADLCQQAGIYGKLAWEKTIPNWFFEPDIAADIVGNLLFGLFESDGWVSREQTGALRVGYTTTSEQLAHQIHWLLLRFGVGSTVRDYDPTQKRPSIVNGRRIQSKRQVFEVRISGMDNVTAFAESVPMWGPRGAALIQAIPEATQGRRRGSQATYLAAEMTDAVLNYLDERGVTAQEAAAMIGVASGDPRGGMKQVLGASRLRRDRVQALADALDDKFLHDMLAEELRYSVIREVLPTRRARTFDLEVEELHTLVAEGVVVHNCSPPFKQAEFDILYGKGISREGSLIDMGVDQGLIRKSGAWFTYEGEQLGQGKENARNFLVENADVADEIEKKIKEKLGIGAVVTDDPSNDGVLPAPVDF

[7] = target: Dual specificity tyrosine-phosphorylation-regulated kinase 1A (Rattus norvegicus, UniProt Q63470); assay type: biochemical, Homo sapiens

Sequence of Procathepsin L (P07711 whole entry): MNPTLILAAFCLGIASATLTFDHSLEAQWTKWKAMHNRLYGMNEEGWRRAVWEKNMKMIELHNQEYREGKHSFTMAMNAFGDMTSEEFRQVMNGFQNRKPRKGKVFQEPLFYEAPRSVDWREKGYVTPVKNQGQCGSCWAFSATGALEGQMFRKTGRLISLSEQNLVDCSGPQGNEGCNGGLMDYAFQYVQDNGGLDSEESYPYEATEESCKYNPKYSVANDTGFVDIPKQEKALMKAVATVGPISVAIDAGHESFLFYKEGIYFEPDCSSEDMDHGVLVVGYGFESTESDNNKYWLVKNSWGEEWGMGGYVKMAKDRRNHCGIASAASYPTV
Sequence of Sphingosine 1-phosphate receptor 2 (O95136 whole entry): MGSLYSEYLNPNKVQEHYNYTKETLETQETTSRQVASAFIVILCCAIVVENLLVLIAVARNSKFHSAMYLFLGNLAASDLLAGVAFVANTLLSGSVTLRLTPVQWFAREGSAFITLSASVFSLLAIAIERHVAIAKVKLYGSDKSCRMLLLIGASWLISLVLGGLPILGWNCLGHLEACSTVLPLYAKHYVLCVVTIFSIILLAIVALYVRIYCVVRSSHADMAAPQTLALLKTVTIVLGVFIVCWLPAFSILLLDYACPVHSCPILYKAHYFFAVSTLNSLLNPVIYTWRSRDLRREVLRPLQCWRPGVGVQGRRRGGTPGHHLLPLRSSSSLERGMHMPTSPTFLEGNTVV

Cc1cc(C(=O)COC(=O)C2CSC3(C)CCC(=O)N23)c(C)n1Cc1ccccc1 (configuration not stated)
EC50 [1]: > 30 µM (not active)

c1ccc(-c2cc(N3CCCCCC3)n[nH]2)cc1
EC50 [2]: 5.19 µM (active)
EC50 [3]: 30.9 µM (active)
EC50 (H4): 9.81 µM (active)
IC50 [4]: > 50 µM (not active)
IC50 [5]: > 50 µM (not active)

COc1ccc(-c2cc(=O)[nH][nH]2)cc1
IC50 (Leucine aminopeptidase): 2.97 µM (active)
IC50 (Aspartyl aminopeptidase): > 73.5 µM (not active)
IC50 (Procathepsin L): > 59.6 µM (not active)
AC50 [6]: 0.882 µM (active)
EC50 (Protein RecA): 0.444 µM (active)
AC50 [7]: 5.54 µM (active)
